Data set [1] relates to Mycosphaerella graminicola (Septoria tritici). Nature of the data set: Mycosphaerella graminicola (Septoria tritici) / liquid culture (Septoria blotch). It is filed as cell-based. As to conditions: Zymoseptoria tritici, growth inhibition determined photometrically 4-5 days after application, compared to untreated control. The method, then: Example B5: Mycosphaerella graminicola (Septoria tritici)/Liquid Culture (Septoria blotch) Conidia of the fungus from cryogenic storage are directly mixed into nutrient broth (PDB potato dextrose broth). After placing a (DMSO) solution of test compound into a microtiter plate (96-well format), the nutrient broth containing the fungal spores is added. The test plates are incubated at 24° C. and the inhibition of growth is determined photometrically 4-5 days after application. […] […]-19.

On to `CC1(C)CCC1NC(=O)c1nc(Nc2cc(F)cc(F)c2)cc2cc[nH]c12` (stereo not shown) [Compound P-1, 5-(3,5-difluoroanilino)-N-(2,2-dimethylcyclobutyl)-1H-pyrrolo[2,3-c]pyridine-7-carboxamide], for which the melting point – broadly, the temperature of the solid-liquid transition – fell in the range of 65 to 89 °C. The inhibition of growth (usually the percentage by which the read-out fell short of the control) at 20 ppm in data set [1] was at least 80%.

In turn, `CC1(C)CCC1NC(=O)c1nc(Nc2cc(F)nc(F)c2)cc2cc[nH]c12` (stereo not shown) [Compound P-2, 5-[(2,6-difluoro-4-pyridyl)amino]-N-(2,2-dimethylcyclobutyl)-1H-pyrrolo[2,3-c]pyridine-7-carboxamide] displayed a melting point of 115 to 148 °C. Moreover, the inhibition of growth at 20 ppm in data set [1] was at least 80%.

`Cn1cc(Nc2cc3cn[nH]c3c(C(=O)NC3CCC3(C)C)n2)cn1` (stereo not shown) [Compound P-4, N-(2,2-dimethylcyclobutyl)-5-[(1-methylpyrazol-4-yl)amino]-1H-pyrazolo[3,4-c]pyridine-7-carboxamide] displayed a melting point of 158 to 166 °C.

As to `CC1(C)CCC1NC(=O)c1nc(Nc2cnsc2)cc2cn[nH]c12` (stereo not shown) [Compound P-5, N-(2,2-dimethylcyclobutyl)-5-(isothiazol-4-ylamino)-1H-pyrazolo[3,4-c]pyridine-7-carboxamide], the melting point is 158 to 166 °C. This compound gave an inhibition of growth at 20 ppm in data set [1] of at least 80%.

The compound `CC1(C)CCC1NC(=O)c1nc(Nc2cc(F)cc(F)c2)cc2cn[nH]c12` (stereo not shown) [Compound P-6, 5-(3,5-difluoroanilino)-N-(2,2-dimethylcyclobutyl)-1H-pyrazolo[3,4-c]pyridine-7-carboxamide] gave a melting point of 167 to 176 °C. Also, the inhibition of growth at 20 ppm in data set [1] was at least 80%.

As for `CC1(C)CCC1NC(=O)c1nc(Nc2ccnc(F)c2)cc2cn[nH]c12` (stereo not shown) [Compound P-7, N-(2,2-dimethylcyclobutyl)-5-[(2-fluoro-4-pyridyl)amino]-1H-pyrazolo[3,4-c]pyridine-7-carboxamide], the melting point lay within 222 to 238 °C. In data set [1], this compound yielded an inhibition of growth at 20 ppm of at least 80%.

Compound `CC1(C)CCC1NC(=O)c1nc(Nc2cc(F)nc(F)c2)cc2cn[nH]c12` (stereo not shown) [Compound P-8, 5-[(2,6-difluoro-4-pyridyl)amino]-N-(2,2-dimethylcyclobutyl)-1H-pyrazolo[3,4-c]pyridine-7-carboxamide] registered a melting point of 240 to 250 °C. In data set [1], this compound returned an inhibition of growth at 20 ppm of at least 80%.

`CCCCCNC(=O)c1nc(Nc2cncc(F)c2)cc2cc[nH]c12` [Compound P-10, 5-[(5-fluoro-3-pyridyl)amino]-N-pentyl-1H-pyrrolo[2,3-c]pyridine-7-carboxamide] returned a melting point of 158 to 162 °C.

The compound `CCCCCNC(=O)c1nc(Nc2cc(F)nc(F)c2)cc2cc[nH]c12` [Compound P-11, 5-[(2,6-difluoro-4-pyridyl)amino]-N-pentyl-1H-pyrrolo[2,3-c]pyridine-7-carboxamide] gave a melting point of 220 to 233 °C.

Take `CCCCCNC(=O)c1nc(Nc2cncc(F)c2)cc2cn[nH]c12` [Compound P-13, 5-[(5-fluoro-3-pyridyl)amino]-N-pentyl-1H-pyrazolo[3,4-c]pyridine-7-carboxamide]: the melting point lay in the range of 155 to 168 °C.

As to `O=C(NC1CCC12CCCC2)c1nc(Nc2cncc(F)c2)cc2cn[nH]c12` (stereo not shown) [Compound P-15, 5-[(5-fluoro-3-pyridyl)amino]-N-spiro[3.4]octan-3-yl-1H-pyrazolo[3,4-c]pyridine-7-carboxamide], the melting point lay within 185 to 195 °C.

Compound `O=C(NC1CCC12CCCC2)c1nc(Nc2cncc(F)c2)cc2cc[nH]c12` (stereo not shown) [Compound P-17, 5-[(5-fluoro-3-pyridyl)amino]-N-spiro[3.4]octan-3-yl-1H-pyrrolo[2,3-c]pyridine-7-carboxamide] returned a melting point of 180 to 191 °C.

Compound `O=C(NC1CCC12CCCC2)c1nc(Nc2cc(F)nc(F)c2)cc2cc[nH]c12` (stereo not shown) [Compound P-18, 5-[(2,6-difluoro-4-pyridyl)amino]-N-spiro[3.4]octan-3-yl-1H-pyrrolo[2,3-c]pyridine-7-carboxamide] yielded a melting point of 170 to 178 °C. The compound also yielded an inhibition of growth at 20 ppm in data set [1] of at least 80%.

Compound `O=C(NC1CCC12CCCC2)c1nc(Nc2cc(F)nc(F)c2)cc2cn[nH]c12` (stereo not shown) [Compound P-19, 5-[(2,6-difluoro-4-pyridyl)amino]-N-spiro[3.4]octan-3-yl-1H-pyrazolo[3,4-c]pyridine-7-carboxamide] yielded a melting point of 168 to 180 °C. The compound also came in with an inhibition of growth at 20 ppm in data set [1] of at least 80%.

These data come from US20220227763A1, “MICROBIOCIDAL DERIVATIVES” (SYNGENTA CROP PROTECTION AG, priority 2019, published 2022).
